Our source for the viscosity and mass density values is the NIST ThermoML archive (doi:10.1016/j.tca.2011.10.030).

± gives the expanded uncertainty stated by the source.

The term viscosity denotes the internal friction of a fluid under shear. Usually mass density stands for the mass of a sample divided by its volume.

The nature of data set [1]: xn = mol fraction of the nth substance listed. The settings on record: 101 kPa, Liquid, x2 = 0; for viscosity: Capillary tube (Ostwald / Ubbelohde) method; for mass density: Vibrating tube method.
For data set [2] the following is noted: 101 kPa, Liquid; for viscosity: Capillary tube (Ostwald / Ubbelohde) method; for mass density: Vibrating tube method.

As for `CCCO` [propan-1-ol] + CCCCCCn1cc[n+](C)c1.F[B-](F)(F)F, the viscosity in data set [1] (293.15 K) was 2.204 ± 0.02 mPa·s; in data set [1] (303.15 K) it was 1.615 ± 0.015 mPa·s; in data set [1] (313.15 K) it was 1.188 ± 0.011 mPa·s; in data set [1] (323.15 K), 0.8796 ± 0.0084 mPa·s; in data set [1] (333.15 K) it was 0.5985 ± 0.006 mPa·s. Besides, the mass density was determined as 809.62 ± 5 kg/m3 in data set [1] (293.15 K); 801.43 ± 5 kg/m3 in data set [1] (303.15 K); 793.09 ± 5 kg/m3 in data set [1] (313.15 K); 784.54 ± 5 kg/m3 in data set [1] (323.15 K); 775.74 ± 5 kg/m3 in data set [1] (333.15 K).
Consider `CCCCCCn1cc[n+](C)c1.F[B-](F)(F)F` [1-hexyl-3-methylimidazolium tetrafluoroborate], for which the viscosity was determined as 232.65 mPa·s in data set [2] (293.15 K); 130.02 mPa·s in data set [2] (303.15 K); 78.24 mPa·s in data set [2] (313.15 K); 50.3 mPa·s in data set [2] (323.15 K); 34.02 mPa·s in data set [2] (333.15 K). Also, the mass density is reported as 1149.24 ± 5.1 kg/m3 in data set [2] (293.15 K); 1142.48 ± 5.1 kg/m3 in data set [2] (303.15 K); 1135.79 ± 5.1 kg/m3 in data set [2] (313.15 K); 1129.08 ± 5.1 kg/m3 in data set [2] (323.15 K); 1122.37 ± 5.1 kg/m3 in data set [2] (333.15 K).
`CCCO` [propan-1-ol]: the viscosity is 2.204 ± 0.02 mPa·s in data set [2] (293.15 K), 1.615 ± 0.015 mPa·s in data set [2] (303.15 K), 1.188 ± 0.011 mPa·s in data set [2] (313.15 K) and 0.8796 ± 0.0084 mPa·s in data set [2] (323.15 K). The mass density in data set [2] (293.15 K) was 809.62 ± 5 kg/m3; in data set [2] (303.15 K) it was 801.43 ± 5 kg/m3; in data set [2] (313.15 K), 793.09 ± 5 kg/m3; in data set [2] (323.15 K), 784.54 ± 5 kg/m3; in data set [2] (333.15 K) it was 775.74 ± 5 kg/m3.
